Test results: ChEMBL document CHEMBL1201862, “PubChem BioAssay data set” (2004)
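48-hour exposure; five concentrations; linearly interpolated endpoints. At the GI50, growth is halved.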 Calls of active or inactive are those of the source. Cut-off read from the data, not from the text of the source: active = GI50 up to about 1.1 µM and inactive = higher.

How the values were obtained:
Assay in all cases: DTP human tumour cell line panel, 48 h
[1] = system: 786-0
[2] = system: A498
[3] = system: ACHN
[4] = system: BT-549
[5] = system: CAKI-1
[6] = system: COLO 205
[7] = system: DU-145
[8] = system: EKVX
[9] = system: HCC 2998
[10] = system: HCT-116
[11] = system: HCT-15
[12] = system: HL-60
[13] = system: HOP-62
[14] = system: HT-29
[15] = system: Hs-578T
[16] = system: IGROV-1
[17] = system: K562
[18] = system: KM12
[19] = system: LOX IMVI
[20] = system: MCF7
[21] = system: MDA-MB-231
[22] = system: MDA-MB-435
[23] = system: MDA-N
[24] = system: MOLT-4
[25] = system: Malme-3M
[26] = system: NCI-H226
[27] = system: NCI-H23
[28] = system: NCI-H460
[29] = system: NCI-H522
[30] = system: NCI/ADR-RES
[31] = system: OVCAR-3
[32] = system: OVCAR-4
[33] = system: OVCAR-5
[34] = system: OVCAR-8
[35] = system: PC-3
[36] = system: RPMI-8226
[37] = system: RXF 393
[38] = system: SF-268
[39] = system: SF-295
[40] = system: SK-MEL-28
[41] = system: SK-MEL-2
[42] = system: SK-MEL-5
[43] = system: SN12C
[44] = system: SNB-19
[45] = system: SNB-75
[46] = system: SR
[47] = system: SW-620
[48] = system: T47D
[49] = system: TK-10
[50] = system: U-251
[51] = system: UACC-257
[52] = system: UACC-62
[53] = system: UO-31
[54] = system: A549
[55] = system: CCRF-CEM
[56] = system: M14
[57] = system: SF-539
[58] = system: SK-OV-3

O=C1/C(=C/c2ccc(Br)s2)NC(=S)N1CN1CCCCC1
GI50 [1]: 36.4 µM (inactive)
GI50 [2]: 22.9 µM (inactive)
GI50 [3]: 46 µM (inactive)
GI50 [4]: 25.9 µM (inactive)
GI50 [5]: 32.4 µM (inactive)
GI50 [6]: 18.1 µM (inactive)
GI50 [7]: 38.1 µM (inactive)
GI50 [8]: 9.35 µM (inactive)
GI50 [9]: 31 µM (inactive)
GI50 [10]: 31 µM (inactive)
GI50 [11]: 27.9 µM
GI50 [12]: 15.4 µM (inactive)
GI50 [13]: 75 µM (inactive)
GI50 [14]: 33.2 µM (inactive)
GI50 [15]: 51.4 µM (inactive)
GI50 [16]: 42.1 µM (inactive)
GI50 [17]: 23.1 µM (inactive)
GI50 [18]: 35.6 µM (inactive)
GI50 [19]: 21.5 µM (inactive)
GI50 [20]: 20.6 µM (inactive)
GI50 [21]: 62.4 µM (inactive)
GI50 [22]: 30 µM (inactive)
GI50 [23]: 33.9 µM (inactive)
GI50 [24]: 23.4 µM (inactive)
GI50 [25]: 58.7 µM (inactive)
GI50 [26]: 32 µM (inactive)
GI50 [27]: 32.4 µM (inactive)
GI50 [28]: 36.1 µM (inactive)
GI50 [29]: 23.3 µM (inactive)
GI50 [30]: 28.8 µM (inactive)
GI50 [31]: 22.4 µM (inactive)
GI50 [32]: 36.8 µM (inactive)
GI50 [33]: 76.6 µM (inactive)
GI50 [34]: 33.3 µM (inactive)
GI50 [35]: 28.2 µM (inactive)
GI50 [36]: 17.6 µM (inactive)
GI50 [37]: 21.1 µM (inactive)
GI50 [38]: 39.4 µM (inactive)
GI50 [39]: 30.5 µM (inactive)
GI50 [40]: 41.1 µM (inactive)
GI50 [41]: 0.678 µM (active)
GI50 [42]: 0.317 µM (active)
GI50 [43]: 34.8 µM (inactive)
GI50 [44]: 46.9 µM (inactive)
GI50 [45]: 44.6 µM (inactive)
GI50 [46]: 15.8 µM (inactive)
GI50 [47]: 33 µM (inactive)
GI50 [48]: 30.5 µM (inactive)
GI50 [49]: 34.5 µM (inactive)
GI50 [50]: 28.8 µM (inactive)
GI50 [51]: 33.3 µM (inactive)
GI50 [52]: 26.6 µM (inactive)
GI50 [53]: 24.5 µM (inactive)

O=C1/C(=C/c2ccc(Cl)cc2)Oc2ccccc21
GI50 [1]: 15.7 µM (inactive)
GI50 [54]: 18.7 µM (inactive)
GI50 [3]: 20.4 µM (inactive)
GI50 [4]: 25.6 µM (inactive)
GI50 [5]: 2.76 µM (inactive)
GI50 [55]: > 100 µM (inactive)
GI50 [6]: 47.1 µM (inactive)
GI50 [7]: 19.7 µM (inactive)
GI50 [8]: 22.1 µM (inactive)
GI50 [9]: > 100 µM (inactive)
GI50 [10]: 59.4 µM (inactive)
GI50 [11]: 66.7 µM
GI50 [12]: > 100 µM (inactive)
GI50 [13]: 22.3 µM (inactive)
GI50 [14]: > 100 µM (inactive)
GI50 [15]: 18.7 µM (inactive)
GI50 [16]: > 10 µM (inactive)
GI50 [17]: > 100 µM (inactive)
GI50 [18]: 32.4 µM (inactive)
GI50 [56]: 43.8 µM (inactive)
GI50 [20]: 30.2 µM (inactive)
GI50 [21]: > 100 µM (inactive)
GI50 [22]: 79.3 µM (inactive)
GI50 [23]: 37.3 µM (inactive)
GI50 [24]: 55.6 µM (inactive)
GI50 [26]: 38.1 µM (inactive)
GI50 [27]: 23.4 µM (inactive)
GI50 [28]: 26.4 µM (inactive)
GI50 [29]: 11.7 µM (inactive)
GI50 [30]: > 10 µM (inactive)
GI50 [31]: > 100 µM (inactive)
GI50 [32]: 46.5 µM (inactive)
GI50 [34]: 29.9 µM (inactive)
GI50 [35]: > 10 µM (inactive)
GI50 [36]: 58.2 µM (inactive)
GI50 [37]: 21.4 µM (inactive)
GI50 [38]: 51.6 µM (inactive)
GI50 [39]: 56.5 µM (inactive)
GI50 [57]: 20.6 µM (inactive)
GI50 [40]: > 100 µM (inactive)
GI50 [42]: 20.4 µM (inactive)
GI50 [58]: > 100 µM (inactive)
GI50 [43]: 96.8 µM (inactive)
GI50 [44]: 37 µM (inactive)
GI50 [45]: 32.7 µM (inactive)
GI50 [46]: 51.2 µM (inactive)
GI50 [47]: > 100 µM (inactive)
GI50 [48]: 27.4 µM (inactive)
GI50 [49]: 22.7 µM (inactive)
GI50 [50]: 36.3 µM (inactive)
GI50 [51]: 64.7 µM (inactive)
GI50 [52]: 58.6 µM (inactive)
GI50 [53]: 16.8 µM (inactive)
